≈ marks a conversion by molar mass, not a printed value.
Assays:
[1] = Selectivity ratio of CC50 for human MT4 cells to IC50 for HIV1 RES056 infected in MT4 cells
[2] = Cytotoxicity against human MT4 cells assessed as reduction in cell viability by MTT assay
[3] = molecular target: Human immunodeficiency virus type 1 reverse transcriptase (Human immunodeficiency virus 1, UniProt Q72547); assay: Inhibition of wild type HIV1 reverse transcriptase assessed as reduction in biotin-dUTP incorporation into […] incubated for 1 hrs by ELISA
[4] = test system: Human immunodeficiency virus 1; assay: Antiviral activity against HIV1 RES056 infected in human MT4 cells assessed as reduction in virus-induced cytopathogenic effect by MTT assay; details: Human immunodeficiency virus 1, RES056, MT4
[5] = test system: Human immunodeficiency virus 2; assay: Antiviral activity against wild type HIV2 ROD infected in human MT4 cells assessed as reduction in virus-induced cytopathogenic effect by MTT assay; details: Human immunodeficiency virus 2, ROD
[6] = test system: Human immunodeficiency virus 1; assay: Antiviral activity against HIV1 3B infected in human MT4 cells assessed as reduction in virus-induced cytopathogenic effect by MTT assay; details: Human immunodeficiency virus 1, 3B
in vitro [7] = details: human, MT4 cells
Description: Selectivity index, ratio of CC50 for human MT4 cells to EC50 for HIV1 harboring E138K mutant infected in human MT4 cells

[8] = test system: Human immunodeficiency virus 1; assay: Antiviral activity against wild type HIV1 harboring Y181C mutant infected in human MT4 cells assessed as reduction in virus-induced cytopathogenic effect by MTT assay; details: Human immunodeficiency virus 1, MT4
[9] = test system: Human immunodeficiency virus 1; assay: Antiviral activity against HIV1 harboring L100I mutant infected in human MT4 cells assessed as reduction in virus-induced cytopathogenic effect by MTT assay; details: Human immunodeficiency virus 1, MT4
[10] = test system: Human immunodeficiency virus 1; details: Human immunodeficiency virus 1, MT4
[11] = test system: Human immunodeficiency virus 1; assay: Antiviral activity against HIV1 harboring F227L/V106A mutant infected in human MT4 cells assessed as reduction in virus-induced cytopathogenic effect by MTT assay; format: functional, organism-based; details: Human immunodeficiency virus 1, MT4
[12] = test system: Human immunodeficiency virus 1; assay: Antiviral activity against HIV1 harboring K103N mutant infected in human MT4 cells assessed as reduction in virus-induced cytopathogenic effect by MTT assay; format: functional, organism-based; details: Human immunodeficiency virus 1, MT4
[13] = test system: Human immunodeficiency virus 1; assay: Antiviral activity against wild type HIV1 harboring Y188L mutant infected in human MT4 cells assessed as reduction in virus-induced cytopathogenic effect by MTT assay; details: Human immunodeficiency virus 1, MT4
[14] = Solubility in phosphate buffer at pH7; details: pH 7
in vitro [15] = details: human, liver microsomes
[16] = Half life in human liver microsomes preincubated for 10 mins followed by phosphate buffer addition and incubated for 1 hr and subsequent addition of NADPH regenerating system and measured after 2 hrs by LC-MS/MS analysis
[17] = Stability in human liver microsomes assessed as compound remaining preincubated for 10 mins followed by phosphate buffer addition and incubated for 1 hr and subsequent addition of NADPH regenerating system and measured after 60 mins by LC-MS/MS analysis; format: ADME, Microsome; details: time 190 min, read-out: Stability

| Structure (SMILES) | selectivity ratio [1] | CC50 [2] [µM] | IC50 [3] [nM] | EC50 [4] [nM] | EC50 [5] [µM] | EC50 [6] [nM] | selectivity ratio (in vitro [7]) | EC50 [8] [nM] | EC50 [9] [nM] | EC50 [10] [nM] | EC50 [11] [nM] | EC50 [12] [nM] | EC50 [13] [nM] | solubility [14] [ng/mL] | microsomal CLint at 2 h (in vitro [15]) [µL/min/mg] | half-life at 2 h [16] [min] | remaining at 1 h [17] [%] |
| --- | --- | --- | --- | --- | --- | --- | --- | --- | --- | --- | --- | --- | --- | --- | --- | --- | --- |
| Cc1cc(C#N)cc(C)c1Oc1nc(NC2CCN(Cc3ccc([N+](=O)[O-])cc3)CC2)nc2c1CSCC2 | > 83 | > 236 | 230 | 2850 | > 236 | 11.5 |  |  |  |  |  |  |  |  |  |  |  |
| Cc1cc(C#N)cc(C)c1Oc1nc(NC2CCN(Cc3cccc(C(N)=O)c3)CC2)nc2c1CSCC2 | > 144 | > 236 | 144 | 1640 | > 236 | 15.4 |  |  |  |  |  |  |  |  |  |  |  |
| Cc1cc(/C=C/C#N)cc(C)c1Oc1nc(NC2CCN(Cc3ccc([N+](=O)[O-])cc3)CC2)nc2c1CSCC2 | 371 | 59.5 | 232 | 160 | > 59.5 | 26.2 |  |  |  |  |  |  |  |  |  |  |  |
| Cc1cc(/C=C/C#N)cc(C)c1Oc1nc(NC2CCN(Cc3cc(=O)[nH]c(=O)[nH]3)CC2)nc2c1CSCC2 | 26 | 23.2 | 171 | 881 | > 23.2 | 30.8 |  |  |  |  |  |  |  |  |  |  |  |
| Cc1cc(C#N)cc(C)c1Oc1nc(Nc2ccc(C#N)c(F)c2)nc2c1CSCC2 | 1030 | 269 | 53 | 262 | > 269 | 13.5 |  |  |  |  |  |  |  |  |  |  |  |
| Cc1cc(/C=C/C#N)cc(C)c1Oc1nc(NC2CCN(Cc3ccc(C(N)=O)cc3)CC2)nc2c1CSCC2 | 495 | 18.5 | 179 | 37.3 | > 18.5 | 15.5 | 615 | 31.1 | 8.65 | 30 | 20 | 12.5 | 35.2 |  |  |  |  |
| Cc1cc(C#N)cc(C)c1Oc1nc(Nc2ccc(C#N)cc2F)nc2c1CSCC2 | > 1 | > 290 | 65 | > 290000 | > 290 | 45.5 |  |  |  |  |  |  |  |  |  |  |  |
| Cc1ccnc2c1NC(=O)c1cccnc1N2C1CC1 [NEVIRAPINE] |  | > 15 |  | > 15000 | > 15 |  |  | > 15000 | 2220 | 182 | > 15000 | 12300 | > 15000 |  |  |  |  |
| Cc1cc(/C=C/C#N)cc(C)c1Oc1nc(Nc2ccc(C#N)cn2)nc2c1CSCC2 | 404 | 246 | 59 | 608 | > 246 | 25.8 |  |  |  |  |  |  |  |  |  |  |  |
| Cc1cc(/C=C/C#N)cc(C)c1Oc1nc(NC2CCN(Cc3ccc(S(C)(=O)=O)cc3)CC2)nc2c1CSCC2 | 186 | 21.5 |  | 116 | 4.81 | 12.6 | 619 | 34.1 | 9.24 | 34.8 | 14.9 | 8.48 | 60.2 |  |  |  |  |
| Cc1cc(/C=C/C#N)cc(C)c1Nc1ccnc(Nc2ccc(C#N)cc2)n1 [RILPIVIRINE] |  |  |  |  |  |  |  |  |  |  |  |  |  | 2 (≈ 5.46 nM) |  |  |  |
| Cc1cc(C#N)cc(C)c1Oc1nc(Nc2ccc(C#N)nc2)nc2c1CSCC2 | 119 | 288 | 43 | 2430 | > 288 | 14.1 |  |  |  |  |  |  |  |  |  |  |  |
| Cc1cc(/C=C/C#N)cc(C)c1Oc1nc(Nc2ccc(C#N)nc2)nc2c1CSCC2 | 1340 | 109 | 32 | 81.6 | > 109 | 12.1 | 8520 | 13.3 | 9.08 | 12.8 | 148 | 4.09 | 59.6 |  |  |  |  |
| Cc1cc(/C=C/C#N)cc(C)c1Oc1nc(NC2CCN(Cc3cccc(C(N)=O)c3)CC2)nc2c1CSCC2 | 21 | 9.45 | 184 | 443 | > 9.45 | 50.4 |  |  |  |  |  |  |  |  |  |  |  |
| Cc1cc(/C=C/C#N)cc(C)c1Oc1nc(NC2CCN(Cc3ccc(S(N)(=O)=O)cc3)CC2)nc2c1CSCC2 | 272 | 15.1 | 203 | 55.4 | 4.05 | 10.7 | 370 | 22.3 | 8.13 | 40.7 | 16.3 | 9.23 | 37.1 |  |  |  |  |
| Cc1cc(C#N)cc(C)c1Oc1nc(NC2CCN(Cc3ccc(C(N)=O)cc3)CC2)nc2c1CSCC2 | > 1690 | > 236 | 143 | 140 | > 236 | 9.98 | > 7180 | 21.4 | 22.3 | 32.9 | 853 | 8.8 | 22.8 |  |  |  |  |
| Cc1cc(C#N)cc(C)c1Oc1nc(NC2CCN(Cc3cc(=O)[nH]c(=O)[nH]3)CC2)nc2c1CSCC2 | 8 | 25.6 | 89 | 3200 | > 25.6 | 13.8 |  |  |  |  |  |  |  |  |  |  |  |
| Cc1cc(/C=C/C#N)cc(C)c1Oc1nc(Nc2ccc(C#N)c(F)c2)nc2c1CSCC2 | 408 | 54.4 | 8 | 133 | > 54.4 | 15.8 | 1320 | 32.7 | 8.41 | 41.2 | 74.3 | 15.8 | 54.3 |  |  |  |  |
| Cc1cc(C#N)cc(C)c1Oc1nc(Nc2ccc(C#N)cc2)nc2c1CSCC2 | 1360 | 202 | 41 | 148 | > 202 | 5.64 | 21400 | 27.6 | 9.31 | 9.43 | 27.1 | < 3.87 | 24.3 |  |  |  |  |
| Cc1cc(C#N)cc(C)c1Oc1nc(Nc2ccc(C#N)cn2)nc2c1CSCC2 | > 1 | > 302 | 53 | 256000 | > 302 | 68.7 |  |  |  |  |  |  |  |  |  |  |  |
| Cc1cc(/C=C/C#N)cc(C)c1Oc1nc(Nc2ccc(C#N)cc2F)nc2c1CSCC2 | > 47 | > 273 | 51 | 5810 | > 273 | 31 |  |  |  |  |  |  |  |  |  |  |  |
| Cc1cc(C#N)cc(C)c1Oc1nc(NC2CCN(Cc3ccc(S(C)(=O)=O)cc3)CC2)nc2c1CSCC2 | 465 | 58 | 134 | 125 | 5.64 | 11.1 | 3100 | 20.8 | 11.6 | 18.7 | 17.1 | 6.65 | 18.4 |  |  |  |  |
| Cc1cc(C#N)cc(C)c1Oc1nc(Nc2ccc(C#N)cc2)nc(N)c1Br [ETRAVIRINE] |  | > 4.59 |  | 42.5 | > 4.59 | 5.03 |  |  | 6.36 | 8.08 | 14.3 | 3.14 |  | < 1000 |  |  |  |
| O=C1Nc2ccc(Cl)cc2[C@@](C#CC2CC2)(C(F)(F)F)O1 [EFAVIRENZ] |  | > 6.34 |  |  |  |  |  |  |  |  |  | 111 |  |  |  |  |  |
| Cc1cc(C#N)cc(C)c1Oc1nc(NC2CCN(Cc3ccc(S(N)(=O)=O)cc3)CC2)nc2c1CSCC2 | > 1850 | > 221 | 151 | 120 | > 221 | 13.7 | > 13900 | 7.44 | 7.88 | 15.9 | 15.1 | 7.17 | 12.6 |  |  |  |  |
| Cc1cc(/C=C/C#N)cc(C)c1Oc1nc(NC2CCN(Cc3ccc(S(N)(=O)=O)cc3)CC2)nc2ccsc12 |  |  |  |  |  |  |  |  |  |  |  |  |  |  | 847 | 1.6 | 0.2 |

From ChEMBL document CHEMBL4831515 (J Med Chem, 2021)
